Converted amounts (≈) assume the structure as drawn.
Tests used:
[1] = system: stress ulcer formation; experiment: WIS: Restraint and Water Immersion Stress-Induced Ulcer Inhibition Test; format: in vivo, rat (male Crj:SD or Slc:SD); settings: rat, 100 mg/kg oral, 7 hours stress
Method: WIS: Restraint and Water Immersion Stress-Induced Ulcer Inhibition Test
The degree of inhibition of the stress ulcer formation is tested.
Male Crj:SDor Slc:SD rats (6 to 7-week-old) were fasted overnight, but allowed free access to water. Each group has 5 to 8 of these rats. The sample compound was dissolved or suspended in an aqueous solution of 0.3% sodium carboxymethylcellulose or 0.05% Tween 80 and then was orally administered (100 mg/10 ml/kg). To a control group, the vehicle was administered. 10 minuts later, the rats were placed in a stress cage and immersed to the level of xipfoid process in a water bath (21° C.) for 7 hours. At the end of the stress, the rats were sacrificed by inhalation of ether or carbon dioxide. Then, the stomach of each was removed, inflated by injecting 10 ml of 5% formalin neutral buffer solution, and immersed in 1% formalin neutral buffer solution for 30 minutes or more to be fixed. The stomach was incised along the greater curvature and then the length of each erosion in the glandular portion was determined under dissecting microscope. The sum of the length of erosions per stomach was defined as ulcer index (UI).
The effect obtained when 100 mg/kg of the sample compound had been administered was expressed as ulcer formation inhibitory rate (%) as follows:
ulcer formation inhibitory rate (%)=[1-(UI in sample group/UI in control group)]×100

[2] = MTT: Cell Damaging and Protecting Effect Test; format: cell-based, rabbit (male Japanese White); settings: rabbit, gastric mucosal cells, final concentration 10^-4 M, 4 hours; smaller value is better; read-out: MTT: cell damaging rate
Source text: MTT: Cell Damaging and Protecting Effect Test
It is confirmed that there is no toxicity in cell level. Those having a toxicity in cell level are inappropriate as an anti-ulcer drug.
A male Japanese White rabbit (2.5 to 3 kg) was anesthetized to death by Nembutal™ and, immediately thereafter, its stomach was removed. The greater curvature of the stomach was incised so as to remove the stomach contents therefrom. After the mucosal surface was washed with HBSS (Hanks' Balanced Salt Solution), the stomach in ice-cooled HBSS was transferred to a laboratory. Then, after the pyloric antrum was removed, the gastric corpus mucosa was separated by a spatula and then minced into 2 to 3 mm^3 pieces in BME (Basal Medium Eagle). Thereafter, these pieces were shaken at 120 to 130 cycles/minute for 15 minutes at 37° C. in BME 60ml containig 280 U/ml of dispase and 30 to 50 U/ml of collagenase. Here, the concentration of collagenase was appropriately changed for each lot in view of the state of cells. The pieces were washed twice with EBSS (Earle's Balanced Salt Solution) containing 1 mM of EDTA and then shaken in MEM (Minimum Essential Medium) containing 1 mM of EDTA at 37° C. for 5 minutes. Subsequently, they were shaken in the dispase and collagenase having the same concentrations as those mentioned above for 15 minutes so as to remove the supernatant and then further shaken at 37° C. for 50 to 60 minutes at 120 to 130 cycles/minute. Then, after being washed twice with HBSS, Ham F12 containing 2% of Ultrocer G™ was used to attain the concentration of 1×10^6 cells/ml. Thus formed suspension was dispensed in each well of a 96-well plate by 200 μl. The plate was incubated in the atmosphere composed of 5% CO2 and 95% air at 37° C. for three days so as to attain a confluent state and then subjected to MTT assay.
The sample compound was dissolved in DMSO so as to attain a concentration of 10^-2 M and then diluted with HBSS containing 2% of Ultrocer G™ so as to attain a final concentration of 10^-4 M. To each group, which 8 wells were used for, 10 μl of MTT reagent were added immediately after 100 μl of the medium in each well were exchanged for same volume of the resulting solution of the sample compound. After being incubated in an atmosphere composed of 5% CO2 and 95% air at 37° C. for 4 hours, thus formed solution was centrifuged and then its supernatant was discarded. Subsequently, 100 μl of 100% ethanol were added to the residue so as to dissolve MTT formazan. Then, the absorbance (OD: 570 to 630) was measured by a microplate reader. This method utilizes a phenomenon in which MTT is changed to MTT formazan only by mitochondria of living cells so as to change color.
The cell damaging or cell protecting effect of the sample compound at the final concentration of 10^-4 M was expressed as cell damaging rate (%) as follows:
cell damaging rate (%)=[1-(absorbance in sample group/absorbance in control group)]×100
Accordingly, the smaller value is better in the cell damaging rate.

[3] = system: Helicobacter pyroli; experiment: AHP: Antibacterial Activity Test Against Helicobacter pyroli; format: cell-based, Helicobacter pyroli NCTC 11637; settings: Helicobacter, NCTC11637, 168 h; H. pyroli NCTC 11637, agar dilution, 7 days; read-out: AHP: minimum inhibitory concentration (MIC)
Method: AHP: Antibacterial […] Against Helicobacter pyroli i)Meaning The minimum inhibitory concentration (MIC) against Helicobacter pyroli (microaerophilic gram-negative bacterium which is supposed to deeply involve in pathogenesis, relapse, and recrudescence of ulcer, referred to as "HP" in the following) is measured so as to find out compounds which have antimicrobial activity against Helicobacter pyroli. ii)Method MICs were determined by the agar dilution method. […] Grown colonies were transfered to the same plate and cultured for 3 days under the same condition. […] A 1,000 μg/ml solution of the sample compound containing DMSO not more than 25% was […] diluted 2-fold in sterile purified water. 100 μl volume from each dilution was mixed thoroughly with 900 μl of brucella agar supplemented with 5% horse blood and solidified in a 24 well micro plate. 10 μl of the bacterial suspension (about 10^3 cfu) was inoculated on this plate and cultured for 7 days under the same condition as that of preculture.

SMILES	WIS: ulcer formation inhibitory rate [1] [%]	cytotoxicity at 4 h, 100 µM [2] [%]	MIC [3] [µg/mL]
CC(C)Cc1cc(C(=O)N2CCN(CC(C)C)CC2)ccc1OCc1ccc(F)c(F)c1.Cl [Example 23, 1-[4-(3,4-difluorobenzyloxy)-3-isobutylbenzoyl]-4-isobutylpiperazine hydrochloride]	83	28	25
CC(C)Cc1cc(C(=O)N2CCN(CC(C)C)CC2)ccc1OCc1ccccc1 [Example 16, 1-(4-benzyloxy-3-isobutylbenzoyl)-4-isobutylpiperazine]	72	-98	50 (≈ 122 µM)
